Data: PubChem BioAssay (NCI)
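Grown in 96-well plates, cells were treated for 48 hours with each compound at five concentrations. Insufficient inhibition: endpoint recorded as highest concentration tested. TGI denotes the concentration required for complete inhibition of growth.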

What was measured:
Experiment in all cases: NCI-60 cell line screen, 48 h
[1] = test system: 786-0 renal
[2] = test system: A498 renal
[3] = test system: A549 NSCLC
[4] = test system: ACHN renal
[5] = test system: CAKI-1 renal
[6] = test system: CCRF-CEM leukemia
[7] = test system: COLO 205 colon
[8] = test system: DLD-1 colon
[9] = test system: DMS 114 small cell lung
[10] = test system: DMS 273 small cell lung
[11] = test system: EKVX NSCLC
[12] = test system: HCC-2998 colon
[13] = test system: HCT-116 colon
[14] = test system: HCT-15 colon
[15] = test system: HL-60(TB) leukemia
[16] = test system: HOP-18 NSCLC
[17] = test system: HOP-62 NSCLC
[18] = test system: HOP-92 NSCLC
[19] = test system: HT29 colon
[20] = test system: IGROV1 ovarian
[21] = test system: K-562 leukemia
[22] = test system: KM12 colon
[23] = test system: KM20L2 colon
[24] = test system: LOX IMVI melanoma
[25] = test system: LXFL 529 NSCLC
[26] = test system: M14 melanoma
[27] = test system: M19-MEL melanoma
[28] = test system: MALME-3M melanoma
[29] = test system: MOLT-4 leukemia
[30] = test system: NCI-H226 lung
[31] = test system: NCI-H23 lung
[32] = test system: NCI-H460 lung
[33] = test system: NCI-H522 lung
[34] = test system: OVCAR-3 ovarian
[35] = test system: OVCAR-4 ovarian
[36] = test system: OVCAR-5 ovarian
[37] = test system: OVCAR-8 ovarian
[38] = test system: RPMI-8226 leukemia
[39] = test system: RXF 393 renal
[40] = test system: RXF-631 renal
[41] = test system: SF-268 CNS
[42] = test system: SF-295 CNS
[43] = test system: SF-539 CNS
[44] = test system: SK-MEL-2 melanoma
[45] = test system: SK-MEL-28 melanoma
[46] = test system: SK-MEL-5 melanoma
[47] = test system: SK-OV-3 ovarian
[48] = test system: SN12C renal
[49] = test system: SNB-19 CNS
[50] = test system: SNB-75 CNS
[51] = test system: SNB-78 CNS
[52] = test system: SR leukemia
[53] = test system: SW-620 colon
[54] = test system: TK-10 renal
[55] = test system: U251 CNS
[56] = test system: UACC-257 melanoma
[57] = test system: UACC-62 melanoma
[58] = test system: UO-31 renal
[59] = test system: XF 498 CNS
[60] = test system: BT-549 breast
[61] = test system: DU-145 prostate
[62] = test system: HS 578T breast
[63] = test system: MCF7 breast
[64] = test system: MDA-MB-231 breast
[65] = test system: MDA-MB-435
[66] = test system: MDA-N
[67] = test system: NCI/ADR-RES ovarian
[68] = test system: PC-3 prostate
[69] = test system: T-47D breast

## O=C1C=Cc2c(-c3ccccc3)oc3cccc1c23
[1]
  TGI: > 100 µM
[2]
  TGI: > 100 µM
[3]
  TGI: > 100 µM
[4]
  TGI: > 76.6 µM
[5]
  TGI: 48.5 µM
[6]
  TGI: 64.6 µM
[7]
  TGI: > 82.1 µM
[8]
  TGI: > 100 µM
[9]
  TGI: 89 µM
[10]
  TGI: > 100 µM
[11]
  TGI: 15.5 µM
[12]
  TGI: > 100 µM
[13]
  TGI: > 73.1 µM
[14]
  TGI: > 75.4 µM
[15]
  TGI: 27.9 µM
[16]
  TGI: > 100 µM
[17]
  TGI: > 100 µM
[18]
  TGI: 73.2 µM
[19]
  TGI: > 100 µM
[20]
  TGI: > 100 µM
[21]
  TGI: 48.1 µM
[22]
  TGI: > 100 µM
[23]
  TGI: > 100 µM
[24]
  TGI: > 52.7 µM
[25]
  TGI: > 100 µM
[26]
  TGI: > 100 µM
[27]
  TGI: > 100 µM
[28]
  TGI: > 100 µM
[29]
  TGI: 19.5 µM
[30]
  TGI: > 70.9 µM
[31]
  TGI: 62.9 µM
[32]
  TGI: > 80.5 µM
[33]
  TGI: > 81 µM
[34]
  TGI: > 100 µM
[35]
  TGI: > 100 µM
[36]
  TGI: > 96 µM
[37]
  TGI: > 100 µM
[38]
  TGI: 19 µM
[39]
  TGI: > 69 µM
[40]
  TGI: > 100 µM
[41]
  TGI: > 100 µM
[42]
  TGI: > 100 µM
[43]
  TGI: > 100 µM
[44]
  TGI: > 100 µM
[45]
  TGI: > 100 µM
[46]
  TGI: > 100 µM
[47]
  TGI: > 80.2 µM
[48]
  TGI: > 100 µM
[49]
  TGI: > 100 µM
[50]
  TGI: 81.8 µM
[51]
  TGI: > 100 µM
[52]
  TGI: > 54.4 µM
[53]
  TGI: > 100 µM
[54]
  TGI: > 92.2 µM
[55]
  TGI: > 100 µM
[56]
  TGI: > 100 µM
[57]
  TGI: 99.1 µM
[58]
  TGI: > 82.6 µM
[59]
  TGI: 67.7 µM

## CCOC1c2cc(OC)c(OC)cc2-c2ccc3ccccc3c2N1C (configuration not stated)
[1]
  TGI: > 64.6 µM
[3]
  TGI: 52.7 µM
[4]
  TGI: > 87.5 µM
[60]
  TGI: 28.6 µM
[5]
  TGI: > 79.7 µM
[6]
  TGI: > 100 µM
[7]
  TGI: 22.8 µM
[8]
  TGI: > 75.1 µM
[9]
  TGI: 24.6 µM
[10]
  TGI: 20.2 µM
[61]
  TGI: 52.4 µM
[11]
  TGI: 56.3 µM
[12]
  TGI: 31.3 µM
[13]
  TGI: 17.7 µM
[14]
  TGI: > 83 µM
[15]
  TGI: > 96.5 µM
[16]
  TGI: > 100 µM
[17]
  TGI: 42.6 µM
[18]
  TGI: 58.4 µM
[62]
  TGI: 34.1 µM
[19]
  TGI: 46.6 µM
[20]
  TGI: 63.3 µM
[21]
  TGI: > 100 µM
[22]
  TGI: 21.1 µM
[23]
  TGI: > 90.5 µM
[24]
  TGI: 41.5 µM
[25]
  TGI: 24.2 µM
[26]
  TGI: 40.2 µM
[27]
  TGI: 25.9 µM
[28]
  TGI: 24.1 µM
[63]
  TGI: 51 µM
[64]
  TGI: 36.6 µM
[65]
  TGI: 36.7 µM
[66]
  TGI: 28.6 µM
[29]
  TGI: > 82.7 µM
[30]
  TGI: 66.9 µM
[31]
  TGI: 28.1 µM
[32]
  TGI: 35.5 µM
[33]
  TGI: 18.3 µM
[67]
  TGI: 96.5 µM
[34]
  TGI: 50.9 µM
[35]
  TGI: 54.5 µM
[36]
  TGI: > 80.2 µM
[37]
  TGI: 31.6 µM
[68]
  TGI: 21.6 µM
[38]
  TGI: > 88.7 µM
[39]
  TGI: 58.5 µM
[40]
  TGI: > 56.8 µM
[41]
  TGI: 23.6 µM
[42]
  TGI: > 75.9 µM
[43]
  TGI: 55.6 µM
[44]
  TGI: 28.6 µM
[45]
  TGI: 28.7 µM
[46]
  TGI: 30.8 µM
[47]
  TGI: 59 µM
[48]
  TGI: 46.5 µM
[49]
  TGI: 54.7 µM
[50]
  TGI: 34.9 µM
[51]
  TGI: > 100 µM
[52]
  TGI: > 100 µM
[53]
  TGI: 49.4 µM
[69]
  TGI: 67.1 µM
[54]
  TGI: 78.3 µM
[55]
  TGI: 33 µM
[56]
  TGI: 42.1 µM
[57]
  TGI: 26.8 µM
[58]
  TGI: > 77.8 µM
[59]
  TGI: 31.8 µM
